Assay results published in ChEMBL document CHEMBL5096179, “Small molecule approaches to treat autoimmune and inflammatory diseases (Part II): Nucleic acid sensing antagonists and inhibitors” (Bioorg Med Chem Lett, 2021).

Experiments:
[1] = target: T1, Toll-like receptor 7 (Homo sapiens, UniProt Q9NYK1); assay: Antagonist activity at R848 stimulated TRL7 in HEK-Blue hTLR7 cells assessed as inhibition of NF kappa B/Ap-1 activation measured after 20 hrs by SEAP reporter assay; type: cell-based
T1 sequence (Q9NYK1 whole entry): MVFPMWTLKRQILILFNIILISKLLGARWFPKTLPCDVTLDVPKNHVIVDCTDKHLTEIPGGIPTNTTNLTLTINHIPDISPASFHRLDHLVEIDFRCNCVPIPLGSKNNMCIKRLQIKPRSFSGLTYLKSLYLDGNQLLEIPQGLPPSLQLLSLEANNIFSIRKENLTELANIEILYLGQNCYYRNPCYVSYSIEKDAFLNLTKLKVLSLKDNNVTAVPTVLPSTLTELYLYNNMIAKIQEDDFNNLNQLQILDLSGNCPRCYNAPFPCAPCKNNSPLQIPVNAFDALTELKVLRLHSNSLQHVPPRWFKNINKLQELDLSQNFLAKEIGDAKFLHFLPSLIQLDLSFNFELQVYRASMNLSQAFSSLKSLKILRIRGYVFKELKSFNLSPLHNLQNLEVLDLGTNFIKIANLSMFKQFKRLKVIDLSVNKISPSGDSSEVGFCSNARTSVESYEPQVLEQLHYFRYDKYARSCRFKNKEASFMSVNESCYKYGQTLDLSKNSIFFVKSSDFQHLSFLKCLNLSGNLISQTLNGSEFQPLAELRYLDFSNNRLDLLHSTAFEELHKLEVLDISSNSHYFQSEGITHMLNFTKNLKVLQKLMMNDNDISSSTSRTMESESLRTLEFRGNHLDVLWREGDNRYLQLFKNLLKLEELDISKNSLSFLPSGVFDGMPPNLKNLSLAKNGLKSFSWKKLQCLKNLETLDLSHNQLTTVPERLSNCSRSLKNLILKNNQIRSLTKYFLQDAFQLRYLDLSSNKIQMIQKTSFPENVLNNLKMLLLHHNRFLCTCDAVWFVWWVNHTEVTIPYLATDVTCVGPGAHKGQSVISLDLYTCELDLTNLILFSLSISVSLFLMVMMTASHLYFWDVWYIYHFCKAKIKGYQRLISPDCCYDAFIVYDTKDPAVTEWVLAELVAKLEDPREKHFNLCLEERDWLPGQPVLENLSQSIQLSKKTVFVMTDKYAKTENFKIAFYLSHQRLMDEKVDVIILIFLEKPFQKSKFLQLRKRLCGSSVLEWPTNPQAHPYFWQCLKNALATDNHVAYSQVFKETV

[2] = target: T2, Toll-like receptor 8 (Homo sapiens, UniProt Q9NR97); assay: Antagonist activity at R848 stimulated TRL8 in HEK-Blue hTLR8 cells assessed as inhibition of NF kappa B/Ap-1 activation measured after 20 hrs by SEAP reporter assay; type: cell-based
T2 sequence (Q9NR97 whole entry): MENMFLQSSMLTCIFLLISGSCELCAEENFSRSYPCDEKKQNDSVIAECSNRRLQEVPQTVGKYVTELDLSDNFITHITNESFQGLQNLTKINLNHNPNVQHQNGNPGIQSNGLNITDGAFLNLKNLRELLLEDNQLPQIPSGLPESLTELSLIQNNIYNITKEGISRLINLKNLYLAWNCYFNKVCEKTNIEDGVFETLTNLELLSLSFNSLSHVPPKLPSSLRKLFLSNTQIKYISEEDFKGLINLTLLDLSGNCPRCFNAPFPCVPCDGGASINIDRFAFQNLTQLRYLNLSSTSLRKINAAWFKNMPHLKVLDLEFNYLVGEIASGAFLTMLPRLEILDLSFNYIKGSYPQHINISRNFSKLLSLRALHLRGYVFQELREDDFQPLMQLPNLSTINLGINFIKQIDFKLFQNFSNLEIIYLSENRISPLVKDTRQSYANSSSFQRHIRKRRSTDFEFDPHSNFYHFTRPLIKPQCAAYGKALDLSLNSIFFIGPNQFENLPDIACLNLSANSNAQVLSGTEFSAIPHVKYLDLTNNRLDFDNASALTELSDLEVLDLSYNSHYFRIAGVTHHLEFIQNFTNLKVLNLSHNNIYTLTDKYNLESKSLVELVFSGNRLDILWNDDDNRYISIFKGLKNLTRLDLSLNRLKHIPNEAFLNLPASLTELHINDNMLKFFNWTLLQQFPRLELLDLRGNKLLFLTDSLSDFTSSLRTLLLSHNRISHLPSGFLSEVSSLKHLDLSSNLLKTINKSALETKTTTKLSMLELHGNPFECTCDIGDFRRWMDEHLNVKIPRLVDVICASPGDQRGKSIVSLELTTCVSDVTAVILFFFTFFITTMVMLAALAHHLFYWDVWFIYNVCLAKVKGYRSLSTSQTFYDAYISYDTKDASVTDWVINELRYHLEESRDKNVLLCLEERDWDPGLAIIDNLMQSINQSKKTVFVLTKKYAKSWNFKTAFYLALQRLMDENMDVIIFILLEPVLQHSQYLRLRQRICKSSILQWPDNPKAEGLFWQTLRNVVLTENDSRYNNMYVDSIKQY

[3] = target: T3, Toll-like receptor 9 (Homo sapiens, UniProt Q9NR96); assay: Antagonist activity at R848 stimulated TRL9 in HEK-Blue hTLR9 cells assessed as inhibition of NF kappa B/Ap-1 activation measured after 20 hrs by SEAP reporter assay; type: cell-based
T3 sequence (Q9NR96 whole entry): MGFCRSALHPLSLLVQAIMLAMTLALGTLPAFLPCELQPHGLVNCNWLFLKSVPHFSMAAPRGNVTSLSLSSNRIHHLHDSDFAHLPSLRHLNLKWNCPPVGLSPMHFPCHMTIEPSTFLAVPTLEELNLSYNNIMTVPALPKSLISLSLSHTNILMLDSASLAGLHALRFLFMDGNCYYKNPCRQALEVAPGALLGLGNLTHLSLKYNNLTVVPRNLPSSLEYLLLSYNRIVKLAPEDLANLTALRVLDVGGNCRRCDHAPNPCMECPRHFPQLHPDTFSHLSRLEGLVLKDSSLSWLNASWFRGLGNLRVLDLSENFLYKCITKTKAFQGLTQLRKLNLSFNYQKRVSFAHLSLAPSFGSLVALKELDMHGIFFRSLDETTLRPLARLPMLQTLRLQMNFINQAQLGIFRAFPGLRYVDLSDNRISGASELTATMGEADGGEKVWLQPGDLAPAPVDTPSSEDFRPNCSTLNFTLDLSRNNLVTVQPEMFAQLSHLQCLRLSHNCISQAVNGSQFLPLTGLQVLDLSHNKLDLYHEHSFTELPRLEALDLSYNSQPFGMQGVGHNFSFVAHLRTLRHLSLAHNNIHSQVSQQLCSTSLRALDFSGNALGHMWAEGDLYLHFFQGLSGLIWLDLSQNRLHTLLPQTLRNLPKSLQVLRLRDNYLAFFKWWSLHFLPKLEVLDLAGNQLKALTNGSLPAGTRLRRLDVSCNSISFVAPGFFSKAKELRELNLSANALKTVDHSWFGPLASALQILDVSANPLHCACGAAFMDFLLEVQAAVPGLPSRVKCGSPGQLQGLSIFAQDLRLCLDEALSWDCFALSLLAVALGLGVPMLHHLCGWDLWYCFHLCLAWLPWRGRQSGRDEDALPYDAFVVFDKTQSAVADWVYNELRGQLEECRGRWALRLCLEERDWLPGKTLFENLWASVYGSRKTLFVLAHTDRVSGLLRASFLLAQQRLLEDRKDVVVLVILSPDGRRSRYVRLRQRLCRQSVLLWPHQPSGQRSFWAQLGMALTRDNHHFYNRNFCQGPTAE

[4] = Cytotoxicity against human THP1-Dual KO-IFNAR2 cells assessed as cell growth inhibition; type: functional, cell-based
[5] = system: THP-1; assay: Cytotoxicity against human THP-1 cells assessed as cell growth inhibition; type: functional, cell-based
[6] = target: T2, Toll-like receptor 8; assay: Antagonist activity at R848 stimulated TRL8 overexpressed in HEK293 cells measured after 20 to 24 hrs by SEAP reporter assay; type: cell-based
[7] = system: THP-1; assay: Cytotoxicity against human THP-1 cells assessed as cell growth inhibition measured after 24 hrs by Celltiter-Glo assay; type: functional, cell-based; conditions: THP-1, 24 h
[8] = target: T4, Cyclic GMP-AMP synthase (Homo sapiens, UniProt Q8N884); assay: Inhibition of cGAS expressed in human THP-1 cells assessed as reduction of IFN-beta expression by ELISA assay; type: cell-based
[9] = target: T1, Toll-like receptor 7; assay: Antagonist activity at TLR7 in human PBMC incubated for 3 hrs by TR-FRET assay; type: cell-based
[10] = target: Stimulator of interferon genes protein (Homo sapiens, UniProt Q86WV6); assay: Binding affinity to wild-type human STING CTD (149 to 379 residues) expressed in Escherichia coli BL21 (DE3) assessed as dissociation constant by isothermal titration calorimetry assay
[11] = system: IMR-90; assay: Cytotoxicity against human IMR-90 cells assessed as inhibition of IFN-beta production by MTS assay; type: functional, cell-based
[12] = system: RAW264.7; assay: Cytotoxicity against mouse RAW264.7 cells assessed as cell growth inhibition measured after 24 hrs by Celltiter-Glo assay; type: functional, cell-based; conditions: RAW264.7, 24 h
[13] = target: T4, Cyclic GMP-AMP synthase; assay: Inhibition of N-terminal 6XHis-SUMO2 fused full length human cGAS (1 to 522 residues) expressed in […] incubated for 20 mins in presence of ATP by luminescence based analysis
[14] = target: NACHT, LRR and PYD domains-containing protein 3 (Mus musculus, UniProt Q8R4B8); assay: Inhibition of NLRP3 inflammasome activation in LPS-primed C57BL/6 mouse bone marrow derived macrophages incubated for 30 mins in presence of ATP by immunoblotting analysis; type: cell-based, Macrophage
[15] = target: T3, Toll-like receptor 9; assay: Antagonist activity at TLR9 (unknown origin)
[16] = target: T4, Cyclic GMP-AMP synthase; assay: Antagonist activity at N-terminal 6XHis tagged human cGAS (155 to 522 residues) expressed in Escherichia coli BL21 DE3 Rosetta 2 in presence of ATP by luciferase based assay
[17] = Inhibition of RANTES secretion in mouse Trex1-knockout bone marrow-derived macrophages incubated for 24 hrs by celltiter-glo assay; type: functional, cell-based; conditions: BMDM
[18] = Inhibition of MCP-1 secretion in mouse Trex1-knockout bone marrow-derived macrophages incubated for 24 hrs by celltiter-glo assay; type: functional, cell-based; conditions: BMDM
[19] = target: T4, Cyclic GMP-AMP synthase; assay: Inhibition of full-length human cGAS by fluorescence polarization
[20] = system: THP-1; assay: Cytotoxicity against human THP-1 cells assessed as cell growth inhibition measured after 24 hrs by Annexin-V staining based flow cytometry analysis; type: functional; conditions: THP-1, 24 h

T4 sequence (Q8N884 whole entry): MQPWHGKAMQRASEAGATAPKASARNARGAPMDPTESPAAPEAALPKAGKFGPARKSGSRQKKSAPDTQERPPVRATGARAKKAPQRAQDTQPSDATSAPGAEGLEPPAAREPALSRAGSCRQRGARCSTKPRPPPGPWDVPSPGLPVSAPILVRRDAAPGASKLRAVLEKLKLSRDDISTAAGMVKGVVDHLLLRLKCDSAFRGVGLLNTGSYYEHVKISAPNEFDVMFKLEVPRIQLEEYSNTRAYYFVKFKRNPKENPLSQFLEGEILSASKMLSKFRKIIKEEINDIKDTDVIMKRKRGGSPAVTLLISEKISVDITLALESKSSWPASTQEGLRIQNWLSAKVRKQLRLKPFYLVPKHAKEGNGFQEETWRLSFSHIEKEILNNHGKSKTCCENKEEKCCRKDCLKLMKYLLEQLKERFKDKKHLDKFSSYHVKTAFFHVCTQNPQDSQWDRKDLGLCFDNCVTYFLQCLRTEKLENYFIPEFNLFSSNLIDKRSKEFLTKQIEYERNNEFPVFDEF
Sequence of Stimulator of interferon genes protein (Q86WV6 whole entry, the tested form may be a part): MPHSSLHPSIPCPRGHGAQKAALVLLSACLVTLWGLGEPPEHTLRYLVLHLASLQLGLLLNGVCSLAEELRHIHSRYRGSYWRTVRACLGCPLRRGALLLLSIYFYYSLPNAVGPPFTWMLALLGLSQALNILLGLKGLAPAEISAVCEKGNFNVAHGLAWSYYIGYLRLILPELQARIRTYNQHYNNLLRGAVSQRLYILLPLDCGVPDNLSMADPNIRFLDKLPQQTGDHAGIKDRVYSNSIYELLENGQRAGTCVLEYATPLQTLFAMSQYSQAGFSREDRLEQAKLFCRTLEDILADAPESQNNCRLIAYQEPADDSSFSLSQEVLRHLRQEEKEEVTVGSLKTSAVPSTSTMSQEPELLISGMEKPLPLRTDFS
Sequence of NACHT, LRR and PYD domains-containing protein 3 (Q8R4B8 whole entry, the tested form may be a part): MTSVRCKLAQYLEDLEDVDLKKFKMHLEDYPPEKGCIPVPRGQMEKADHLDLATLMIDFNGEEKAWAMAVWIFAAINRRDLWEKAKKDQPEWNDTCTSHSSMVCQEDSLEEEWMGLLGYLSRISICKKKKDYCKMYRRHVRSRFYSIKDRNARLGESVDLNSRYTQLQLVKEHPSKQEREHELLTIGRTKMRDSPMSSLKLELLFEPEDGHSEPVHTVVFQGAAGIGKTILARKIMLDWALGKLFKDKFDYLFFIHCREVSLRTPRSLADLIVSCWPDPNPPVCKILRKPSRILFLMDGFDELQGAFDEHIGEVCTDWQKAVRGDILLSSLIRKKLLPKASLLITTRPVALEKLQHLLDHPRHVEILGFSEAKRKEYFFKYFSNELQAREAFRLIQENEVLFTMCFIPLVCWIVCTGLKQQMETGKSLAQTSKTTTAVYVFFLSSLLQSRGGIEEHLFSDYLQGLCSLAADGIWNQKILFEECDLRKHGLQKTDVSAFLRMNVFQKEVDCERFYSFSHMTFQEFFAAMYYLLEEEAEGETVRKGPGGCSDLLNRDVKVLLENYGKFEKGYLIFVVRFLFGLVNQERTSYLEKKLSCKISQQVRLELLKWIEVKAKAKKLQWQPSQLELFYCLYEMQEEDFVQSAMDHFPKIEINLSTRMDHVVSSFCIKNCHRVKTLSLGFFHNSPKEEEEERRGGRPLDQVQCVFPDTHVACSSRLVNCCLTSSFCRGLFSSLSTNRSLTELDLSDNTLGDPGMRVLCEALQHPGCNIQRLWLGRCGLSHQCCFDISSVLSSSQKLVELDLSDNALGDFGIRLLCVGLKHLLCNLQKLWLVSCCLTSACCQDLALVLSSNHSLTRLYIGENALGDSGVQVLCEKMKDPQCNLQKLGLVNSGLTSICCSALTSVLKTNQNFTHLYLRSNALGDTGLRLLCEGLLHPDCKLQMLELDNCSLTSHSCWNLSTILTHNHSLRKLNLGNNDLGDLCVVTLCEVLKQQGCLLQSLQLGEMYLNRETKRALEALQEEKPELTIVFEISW

SMILES: Cc1cc(N2CCOC3(CN(C[C@H]4CN(c5ccc(C#N)c6ncccc56)C[C@@H](C)O4)C3)C2)cc(C)n1
- IC50 [1]: < 3 nM
- IC50 [2]: < 3 nM
- IC50 [3]: < 32 nM

SMILES: O=C(Nc1c[nH]c2cc(F)c(F)cc12)c1ncn(Cc2ccc(C(F)(F)F)cc2)n1
- IC50 [4]: 40 nM

SMILES: COC(=O)[C@H](Cc1ccccc1)Nc1nc(NCc2nc3cc(F)ccc3[nH]2)nc(Nc2cccc(CN3CCN(C(=O)c4nccnc4O)CC3)c2)n1
- IC50 [5]: 20000 nM

SMILES: Cc1cccc(-c2ccnc3c(C(N)=O)cnn23)c1
- IC50 [6]: 67 nM

SMILES: CCCCc1ccc(Nc2c(Nc3c[nH]c4ccccc34)c(=O)c2=O)cc1
- IC50 [4]: 200 nM

SMILES: O=C(Nc1cc(-c2ccccc2)ccn1)c1[nH]ncc1[N+](=O)[O-]
- IC50 [7]: 2630 nM

SMILES: Cc1nc(N2C[C@@H](CC(=O)Nc3ccncc3)C[C@H]2C(=O)O)c2oc3ccccc3c2n1
- IC50 [8]: 13000 nM

SMILES: CCN(C)CC(=O)NC12CCC(Cn3nc(C)c4c3CCN(c3cc(C)nc5c3cnn5C)C4)(CC1)CC2
- IC50 [9]: < 0.5 nM

SMILES: CC[C@@H]1CC(=O)[C@@H]2[C@H](Cl)[C@H](Cl)CN2C(=O)[C@H](CC)NC(=O)C[C@H](c2ccccc2)NC(=O)[C@H](CO)NC1=O
- Kd [10]: 53 nM
- IC50 [11]: 10800 nM

SMILES: Nc1ccc(-c2cc(Cl)c(Cl)c3[nH]c4c(c23)CN(C(=O)CO)CC4)cn1
- IC50 [12]: < 1000 nM

SMILES: CCCCc1ccc(S(N)(=O)=Nc2c[nH]c3ccccc23)cc1 (stereo not drawn)
- IC50 [4]: 40 nM

SMILES: O=C(O)c1n[nH]c(-n2cnnc2)n1
- IC50 [13]: 29900 nM

SMILES: COc1ccc(/C=C/C(=O)Nc2ccccc2C(=O)O)cc1OC
- IC50 [14]: 25000 nM

SMILES: CCCCc1ccc(NC(=O)Nc2c[nH]c3ncc(F)cc23)cc1
- IC50 [4]: 40 nM

SMILES: O=C(O)c1cccc(NC(=O)c2n[nH]c(-n3cnnc3)n2)c1
- IC50 [13]: 13100 nM

SMILES: CNCc1ccc(C(=O)Nc2nc(N3CCN(C4CCCC4)CC3)c3ncn(CCCN4CCCC4)c3n2)cc1
- IC50 [15]: 5 nM

SMILES: COc1cccc2oc(-c3c(C#N)[nH]c4c(-c5ccccc5)c(C(F)(F)F)nn4c3=O)nc12
- IC50 [16]: < 20000 nM
- IC50 [17]: 1250 nM
- IC50 [18]: 6970 nM

SMILES: Cc1[nH]n2c(-c3ccccc3)c(C#N)nc2c(=O)c1-c1cccc(Cl)c1
- IC50 [5]: < 10000 nM
- IC50 [19]: < 1000 nM

SMILES: COc1ccc2nc3cc(N)ccc3c(N(C)CCCN(C)c3ccncc3)c2c1
- IC50 [20]: 14000 nM

SMILES: COC12CNCC1CN(c1ccc3c(c1)CN1[C@H](C)CN(c4ccc(C#N)c5ncccc45)C[C@H]31)C2 (stereo partly drawn)
- IC50 [1]: < 3 nM
- IC50 [2]: < 3 nM
- IC50 [3]: < 32 nM
